Source: patent US11072617B2, “Bicyclic sulfones and sulfoxides and methods of use thereof” (Genentech, Inc., priority 2017, dated 2021)

target: human RIP1 kinase domain (2-375) (Homo sapiens (Human), UniProt Q13546); experiment: RIP1 kinase inhibition biochemical assay (Transcreener ADP, fluorescence polarization); settings: Ki app from tight-binding Morrison equation; 50 nM enzyme, 50 uM ATP, 2 hours incubation
Protocol: RIP1 Kinase Inhibition Assays (Biochemical Assay)
The compounds of the present invention were tested for their capacity to inhibit RIP1K activity as described below.
The ability of the receptor interacting protein kinase (RIPK1) to catalyze the hydrolysis of adenosine-5′-triphosphate (ATP) is monitored using the Transcreener ADP (adenosine-5′-diphosphate) assay (BellBrook Labs). Purified human RIP1 kinase domain (2-375) (50 nM) derived from a baculovirus-infected insect cell expression system is incubated with test compounds for 2 hours in 50 mM Hepes buffer (pH 7.5) containing 30 mM MgCl2, 1 mM dithiothreitol, 50 uM ATP, 0.002% Brij-35, and 0.5% dimethyl sulfoxide (DMSO). Reactions are quenched by the addition of 1× Bell Brooks Stop buffer B (20 mM Hepes (ph7.5), 40 mM ethylenediaminetetraacetic acid and 0.02% Brij-35) containing an additional 12 mM EDTA and 55 ug/mL ADP2 antibody and 4 nM ADP-AlexaFluor® 633 tracer. The tracer bound to the antibody is displaced by the ADP generated during the RIP1K reaction, which causes a decrease in fluorescence polarization that is measured by laser excitation at 633 nm with a FP microplate reader M1000. Fractional activity was plotted against test article concentration. Using Genedata Screener software (Genedata; Basel, Switzerland), the data were fit to the tight-binding apparent inhibition constant (Ki^app) Morrison equation [Williams, J. W. and Morrison, J. F. (1979) The kinetics of reversible tight-binding inhibition. Methods Enzymol 63: 437-67]. The following equation was used to calculate fractional activity and Ki^app:
[formula] where [E]T and [I]T are the total concentrations of active enzyme and test article, respectively.
Exemplary compounds of the present invention are provided in Table 1 along with their physiochemical characterization and in vitro RIP1 kinase inhibitory activity data. “Method” in the first column of each table refers to the synthetic method(s) used to prepare each compound as shown in the Examples above. In certain examples, chiral column retention times (min) are provided for certain stereoisomers. Unless otherwise specified, the stereochemistry shown in each structure represents relative configuration of a single stereoisomer, and absolute configuration (i.e., “R” and/or “S”) is arbitrarily assigned. In some embodiments, where the Method is described to include the separation of stereoisomers, a single stereoisomer of a compound of Table 1 is provided.

Sequence of human RIP1 kinase domain (2-375) (Q13546 2-375): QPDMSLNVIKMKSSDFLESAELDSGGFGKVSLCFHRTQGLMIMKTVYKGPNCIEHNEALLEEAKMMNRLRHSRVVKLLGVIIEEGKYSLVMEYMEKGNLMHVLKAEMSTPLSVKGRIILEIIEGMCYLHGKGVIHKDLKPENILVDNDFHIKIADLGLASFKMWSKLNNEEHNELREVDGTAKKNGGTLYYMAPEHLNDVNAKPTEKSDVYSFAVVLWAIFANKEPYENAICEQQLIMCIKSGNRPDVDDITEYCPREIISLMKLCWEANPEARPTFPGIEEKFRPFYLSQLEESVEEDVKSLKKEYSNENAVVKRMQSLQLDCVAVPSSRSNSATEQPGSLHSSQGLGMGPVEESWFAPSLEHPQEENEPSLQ

Ki [nM] | SMILES
150 | N#CC[S@@+]([O-])c1cc2n(n1)[C@H](c1ccccc1)C[C@@H]2F (single isomer, unassigned) [Example 91]
19 | N#CC[S@+]([O-])c1cc2n(n1)[C@H](c1ccccc1)C[C@@H]2F (single isomer, unassigned) [Example 92]
92 | N#CC[S@+]([O-])c1nc2n(n1)[C@H](c1ccccc1Cl)C[C@@H]2F (single isomer, unassigned) [Example 93]
4 | N#CC[S@@+]([O-])c1nc2n(n1)[C@H](c1ccccc1Cl)C[C@@H]2F (single isomer, unassigned) [Example 94]
190 | N#CC[S@+]([O-])c1nc2n(n1)[C@H](c1ccccc1F)C[C@@H]2F (single isomer, unassigned) [Example 95]
3 | N#CC[S@@+]([O-])c1nc2n(n1)[C@H](c1ccccc1F)C[C@@H]2F (single isomer, unassigned) [Example 96]
190 | N#CC[S@+]([O-])c1nc2n(n1)[C@H](c1cccc(F)c1)C[C@@H]2F (single isomer, unassigned) [Example 97]
3 | N#CC[S@@+]([O-])c1nc2n(n1)[C@H](c1cccc(F)c1)C[C@@H]2F (single isomer, unassigned) [Example 98]
530 | N#CC[S@+]([O-])c1nc2n(n1)[C@H](c1ccc(F)cc1)C[C@@H]2F (single isomer, unassigned) [Example 99]
3 | N#CC[S@@+]([O-])c1nc2n(n1)[C@H](c1ccc(F)cc1)C[C@@H]2F (single isomer, unassigned) [Example 100]
47 | N#CC[S@+]([O-])c1nc2n(n1)[C@@H](c1ccccc1Cl)C[C@H]2F (single isomer, unassigned) [Example 101]
14 | CC(C)(C#N)S(=O)(=O)c1nc2n(n1)[C@H](c1ccccc1)C[C@@H]2F (single isomer, unassigned) [Example 104]
22 | CS(=O)(=O)c1nc2n(n1)[C@H](c1ccccc1)C[C@@H]2F (single isomer, unassigned) [Example 106]
11 | CCS(=O)(=O)c1nc2n(n1)[C@H](c1ccccc1)C[C@@H]2F (single isomer, unassigned) [Example 108]
14 | CC(C)S(=O)(=O)c1nc2n(n1)[C@H](c1ccccc1)C[C@@H]2F (single isomer, unassigned) [Example 110]
60 | O=S(=O)(CC1CC1)c1nc2n(n1)[C@H](c1ccccc1)C[C@@H]2F (single isomer, unassigned) [Example 112]
71 | O=S(=O)(CC(F)(F)F)c1nc2n(n1)[C@H](c1ccccc1)C[C@@H]2F (single isomer, unassigned) [Example 114]
170 | COCS(=O)(=O)c1nc2n(n1)[C@H](c1ccccc1)C[C@@H]2F (single isomer, unassigned) [Example 116]
7 | O=S(=O)(c1nc2n(n1)[C@H](c1ccccc1F)C[C@@H]2F)[C@H]1CC1(F)F (single isomer, unassigned) [Example 119]
< 5 | O=S(=O)(c1nc2n(n1)[C@H](c1ccccc1Cl)C[C@@H]2F)[C@H]1CC1(F)F (single isomer, unassigned) [Example 120]
12 | O=S(=O)(c1nc2n(n1)[C@H](c1cc(F)ccc1F)C[C@@H]2F)C1CC1(F)F (single isomer, unassigned) [Example 122]
< 5 | O=S(=O)(c1nc2n(n1)[C@H](c1ccccc1F)C[C@@H]2F)[C@@H]1CC1(F)F (single isomer, unassigned) [Example 124]
< 5 | O=S(=O)(c1nc2n(n1)[C@H](c1ccccc1Cl)C[C@@H]2F)[C@@H]1CC1(F)F (single isomer, unassigned) [Example 125]
< 5 | O=S(=O)(c1nc2n(n1)[C@H](c1cc(F)ccc1F)C[C@@H]2F)[C@H]1CC1(F)F (single isomer, unassigned) [Example 126]
6 | O=S(=O)(c1nc2n(n1)[C@H](c1cc(F)ccc1F)C[C@@H]2F)[C@@H]1CC1(F)F (single isomer, unassigned) [Example 127]
10 | O=S(=O)(c1nc2n(n1)[C@H](c1cccc(F)c1F)C[C@@H]2F)[C@@H]1CC1(F)F (single isomer, unassigned) [Example 128]

Ki [nM] | SMILES
4 | O=S(=O)(c1nc2n(n1)[C@H](c1ccccc1)C[C@@H]2F)[C@@H]1CC1(F)F (single isomer, unassigned) [Example 131]
4 | O=S(=O)(c1nc2n(n1)[C@H](c1ccccc1F)C[C@@H]2F)C(F)(F)F (single isomer, unassigned) [Example 133]
3 | O=S(=O)(c1nc2n(n1)[C@H](c1ccccc1Cl)C[C@@H]2F)C(F)(F)F (single isomer, unassigned) [Example 134]
4 | O=S(=O)(c1nc2n(n1)[C@H](c1cccc(F)c1)C[C@@H]2F)C(F)(F)F (single isomer, unassigned) [Example 135]
< 5 | O=S(=O)(c1nc2n(n1)[C@H](c1cccc(F)c1F)C[C@@H]2F)C(F)(F)F (single isomer, unassigned) [Example 136]
4 | O=S(=O)(c1nc2n(n1)[C@H](c1ccccc1)C[C@@H]2F)C(F)(F)F (single isomer, unassigned) [Example 137]
< 5 | O=S(=O)(c1nc2n(n1)[C@H](c1cc(F)ccc1F)C[C@@H]2F)C(F)(F)F (single isomer, unassigned) [Example 138]
5 | O=S(=O)(c1nc2n(n1)[C@H](c1c(F)cccc1F)C[C@@H]2F)C(F)(F)F (single isomer, unassigned) [Example 139]
540 | O=S(=O)(c1nc2n(n1)[C@@H](c1cccc(F)c1F)C[C@H]2F)C(F)(F)F (single isomer, unassigned) [Example 140]
< 5 | O=S(=O)(c1nc2n(n1)[C@H](c1cccc(F)c1)C[C@@H]2F)[C@H]1C[C@@H]1F (single isomer, unassigned) [Example 141]
< 5 | O=S(=O)(c1nc2n(n1)[C@H](c1cccc(F)c1)C[C@@H]2F)[C@@H]1C[C@H]1F (single isomer, unassigned) [Example 142]
31 | O=S(=O)(c1nc2n(n1)[C@H](c1ccc(F)c(F)c1)C[C@@H]2F)[C@H]1C[C@@H]1F (single isomer, unassigned) [Example 143]
9 | O=S(=O)(c1nc2n(n1)[C@H](c1ccc(F)c(F)c1)C[C@@H]2F)[C@@H]1C[C@H]1F (single isomer, unassigned) [Example 144]
5 | O=S(=O)(c1nc2n(n1)[C@H](c1ccccc1)C[C@@H]2F)[C@@H]1C[C@H]1F (single isomer, unassigned) [Example 145]
4 | O=S(=O)(c1nc2n(n1)[C@H](c1ccccc1)C[C@@H]2F)[C@H]1C[C@@H]1F (single isomer, unassigned) [Example 146]
16 | CC(F)(F)S(=O)(=O)c1nc2n(n1)[C@H](c1ccccc1)C[C@@H]2F (single isomer, unassigned) [Example 149]
21 | CC1(S(=O)(=O)c2nc3n(n2)[C@H](c2ccccc2)C[C@@H]3F)CC1 (single isomer, unassigned) [Example 150]
4.8 | O=S(=O)(c1nc2n(n1)[C@H](c1ccccc1)C[C@@H]2F)C1(C(F)F)CC1 (single isomer, unassigned) [Example 155]
270 | O=S(=O)(c1nc2n(n1)[C@H](c1ccccc1)C[C@@H]2F)C(F)(F)CO (single isomer, unassigned) [Example 156]
23 | N#CC1(S(=O)(=O)c2nc3n(n2)[C@H](c2ccccc2)C[C@@H]3F)CC1 (single isomer, unassigned) [Example 157]
15 | C[C@@H](F)S(=O)(=O)c1nc2n(n1)[C@H](c1ccccc1)C[C@@H]2F (single isomer, unassigned) [Example 159]
18 | C[C@H](F)S(=O)(=O)c1nc2n(n1)[C@H](c1ccccc1)C[C@@H]2F (single isomer, unassigned) [Example 160]
26 | CCCS(=O)(=O)c1nc2n(n1)[C@H](c1ccccc1)C[C@@H]2F (single isomer, unassigned) [Example 161]
< 5 | O=S(=O)(c1nc2n(n1)[C@H](c1ccccc1)C[C@@H]2F)[C@H]1C[C@H](F)C1 (single isomer, unassigned) [Example 164]
25 | CC(C)(F)S(=O)(=O)c1nc2n(n1)[C@H](c1ccccc1)C[C@@H]2F (single isomer, unassigned) [Example 165]
